Measurements reported in US8329656B2, “Use of a PDE5 inhibitor for treating and preventing hypopigmentary disorders” (Switch Biotech AG, priority 2004, dated 2012).
“Also recorded” adds a separate entry of the source.

Tested on: human melanoma cell line (Mel-Ho)
Experiment: Melanocyte dendrite outgrowth assay
Type: cell-based
Settings: Mel-Ho cells; for induction of melanocyte dendricity (in words): different concentrations, 24 hours
Source text: A possibility to test the effect of a compound on melanocyte function as a measure for pigmentation, the melanocyte dendrite outgrowth assay can be performed. Vitiligo melanocytes for example have only stubby dendrites. Increasing dendricity as a prerequisite for the transfer of the melanosomes from melanocytes to the surrounding keratinocytes rescues this defect. For this assay, cells from a human melanoma cell line (Mel-Ho) were obtained from DSMZ (Deutsche Sammlung für Mikroorganismen and Zellkulturen) and were cultured according to the protocol provided by DSMZ. In short, after thawing the melanocytes were cultured in T-75 flasks in melanocyte culture media (provided by the manufacturer) until they reach 70-80% confluency. The melanocytes were then trypsinized, transferred into 5-10 new T-75 flasks, and grown again to same confluency as described above. After this expansion step the melanocytes were immediately used for the Melanocyte Dendrite Outgrowth Assay or were frozen for later use. For the assay, the melanocytes were seeded in 24 well plates at a density of 1-5×10^4 cells/well. After 24 hours, the melanocytes were treated with 100 μM IBMX (Sigma-Aldrich) or different concentrations of Sildenafil and Tadalafil for 24 hours. IBMX (=3-isobutyl-1-methylxanthin) is known to cause increased melanocyte dendricity and was used as a positive control. Cells treated with media only were used as a negative control. Melanocyte dendrite outgrowth was documented by digital photography (Canon G2 Powershot) after 3, 6 and 24 hours. In addition, melanocyte dendricity was scored by 3 blinded individuals after 24 hours. The score ranges from 1 to 4; 1 representing melanocytes with no dendrites and 4 representing melanocytes with many long and branched dendrites. […] 10 μM Sildenafil was used to obtain an score of >3, however also lower concentrations (down to 10 nM) of Sildenafil was sufficient to induce dendrite formation. The experiment was performed as described in Example 1, however using Tadalafil as active component.

| SMILES | induction of melanocyte dendricity (in words) | concentration sufficient to induce dendrite formation (lower concentrations than 10 μM) [nM] |
| --- | --- | --- |
| CN1CC(=O)N2C(Cc3c([nH]c4ccccc34)[C@H]2c2ccc3c(c2)OCO3)C1=O (stereo partly drawn) [Tadalafil, (6R,12aR)-2,3,6,7,12,12a-hexahydro-2-methyl-6-(3,4-methylenedioxyphenyl)pyrazino[1′,2′:1,6]pyrido[3,4-b]indole-1,4-dione] | very similar to the results obtained with Sildenafil; also recorded: effectively induces dendricity; also recorded: strongly increased dendricity |  |
| CCCc1nn(C)c2c(=O)[nH]c(-c3cc(S(=O)(=O)N4CCN(C)CC4)ccc3OCC)nc12 [Sildenafil, 5-[2-Ethoxy-5-(4-methyl-1-piperazinylsulfonyl)phenyl]-1-methyl-3-n-propyl-1,6-dihydro-7H-pyrazolo[4,3-d]pyrimidin-7-one] | strongly increased dendricity | ≥ 10 |
